The text below walks through data of paper PMC5218480 (PLoS ONE, 2017).

The subject of this assay is MV-4-11 cells. Briefly: Gene expression microarray analysis (Affymetrix PrimeView) and GSEA. The conditions noted are these: MV-4-11 cells, 48 hours. The arrangement: RFU PODN (11730768_x_at) / Fold change /veh PODN (11730768_x_at) / RFU LINC00158 (11744669_a_at) / Fold change /veh LINC00158 (11744669_a_at) / RFU DUSP10 (11751237_a_at) / Fold change /veh DUSP10 (11751237_a_at) / RFU ID3 (11757404_x_at) / Fold change /veh ID3 (11757404_x_at) / RFU PLEKHG5 (11737974_s_at) / Fold change /veh PLEKHG5 (11737974_s_at) / RFU LRRC4B (11730491_at) / Fold change /veh LRRC4B (11730491_at) / RFU GIMAP4 (11747438_a_at) / Fold change /veh GIMAP4 (11747438_a_at) / RFU KRT8 (11758183_x_at) / Fold change /veh KRT8 (11758183_x_at) / RFU CNN1 (11734310_a_at) / Fold change /veh CNN1 (11734310_a_at) / RFU VPS37D (11726825_at) / Fold change /veh VPS37D (11726825_at) / RFU C10orf10 (11716522_x_at) / Fold change /veh C10orf10 (11716522_x_at) / RFU KIR2DL2 /// KIR2DL4 /// KIR2DL5A /// KIR2DL5B /// KIR2DS1 /// KIR2DS2 /// KIR2DS3 /// KIR2DS4 /// KIR3DL3 /// KIR3DL3 /// KIR3DS1 (11738374_at) / Fold change /veh KIR2DL2 /// KIR2DL4 /// KIR2DL5A /// KIR2DL5B /// KIR2DS1 /// KIR2DS2 /// KIR2DS3 /// KIR2DS4 /// KIR3DL3 /// KIR3DL3 /// KIR3DS1 (11738374_at) / RFU C1QL1 (11718748_at) / Fold change /veh C1QL1 (11718748_at) / RFU TMPRSS4 (11747572_a_at) / Fold change /veh TMPRSS4 (11747572_a_at) / RFU HAMP (11756126_x_at) / Fold change /veh HAMP (11756126_x_at) / RFU RNFT2 (11725882_a_at) / Fold change /veh RNFT2 (11725882_a_at) / RFU NR4A2 (11747474_a_at) / Fold change /veh NR4A2 (11747474_a_at) / RFU ABCC12 (11746883_a_at) / Fold change /veh ABCC12 (11746883_a_at) / RFU TMEM136 (11760407_x_at) / Fold change /veh TMEM136 (11760407_x_at) / RFU CLDN22 /// WWC2 (11732394_at) / Fold change /veh CLDN22 /// WWC2 (11732394_at) / RFU HLA-DPB1 (11760878_x_at) / Fold change /veh HLA-DPB1 (11760878_x_at) / RFU SPINT1 (11716480_a_at) / Fold change /veh SPINT1 (11716480_a_at) / RFU GAP43 (11754022_s_at) / Fold change /veh GAP43 (11754022_s_at) / RFU A4GNT (11735810_at) / Fold change /veh A4GNT (11735810_at) / RFU PRB3 (11715151_x_at) / Fold change /veh PRB3 (11715151_x_at) / RFU TUBB4B (11761932_at) / Fold change /veh TUBB4B (11761932_at) / RFU CAPN14 (11732068_a_at) / Fold change /veh CAPN14 (11732068_a_at) / RFU TMCC2 (11721928_a_at) / Fold change /veh TMCC2 (11721928_a_at) / RFU IRGQ (11745062_a_at) / Fold change /veh IRGQ (11745062_a_at) / RFU FAM174B (11720279_a_at) / Fold change /veh FAM174B (11720279_a_at) / RFU TMPRSS4 (11748680_a_at) / Fold change /veh TMPRSS4 (11748680_a_at) / RFU FAM212B (11763350_a_at) / Fold change /veh FAM212B (11763350_a_at) / RFU PLEKHG5 (11743358_a_at) / Fold change /veh PLEKHG5 (11743358_a_at) / RFU ZSCAN30 (11745921_a_at) / Fold change /veh ZSCAN30 (11745921_a_at) / RFU CMKLR1 (11741424_a_at) / Fold change /veh CMKLR1 (11741424_a_at) / RFU LOC101060620 /// MAPK8IP1 (11723275_at) / Fold change /veh LOC101060620 /// MAPK8IP1 (11723275_at) / RFU SPTSSB (11747773_x_at) / Fold change /veh SPTSSB (11747773_x_at) / RFU PRSS12 (11739890_at) / Fold change /veh PRSS12 (11739890_at) / RFU BIN1 (11741810_x_at) / Fold change /veh BIN1 (11741810_x_at) / RFU WNT11 (11732464_a_at) / Fold change /veh WNT11 (11732464_a_at) / RFU C10orf10 (11716521_a_at) / Fold change /veh C10orf10 (11716521_a_at) / RFU C5orf56 (11738089_at) / Fold change /veh C5orf56 (11738089_at) / RFU CYB561 (11721691_x_at) / Fold change /veh CYB561 (11721691_x_at) / RFU ANKRD19P (11752326_a_at) / Fold change /veh ANKRD19P (11752326_a_at) / RFU OR2T12 /// OR2T33 /// OR2T8 (11738714_s_at) / Fold change /veh OR2T12 /// OR2T33 /// OR2T8 (11738714_s_at) / RFU VCAN (11748164_a_at) / Fold change /veh VCAN (11748164_a_at) / RFU JSRP1 (11732532_at) / Fold change /veh JSRP1 (11732532_at) / RFU KRTAP10-11 (11738290_x_at) / Fold change /veh KRTAP10-11 (11738290_x_at) / RFU MYO3A (11730013_a_at) / Fold change /veh MYO3A (11730013_a_at) / RFU EBF3 (11725865_a_at) / Fold change /veh EBF3 (11725865_a_at) / RFU CAMK2N1 (11719241_x_at) / Fold change /veh CAMK2N1 (11719241_x_at) / RFU C5orf56 (11738088_a_at) / Fold change /veh C5orf56 (11738088_a_at) / RFU OLFML3 (11715873_a_at) / Fold change /veh OLFML3 (11715873_a_at) / RFU LOC100653217 /// NTM (11731650_a_at) / Fold change /veh LOC100653217 /// NTM (11731650_a_at) / RFU MAPK11 (11762145_a_at) / Fold change /veh MAPK11 (11762145_a_at) / RFU FIZ1 (11724087_x_at) / Fold change /veh FIZ1 (11724087_x_at) / RFU OASL (11726364_x_at) / Fold change /veh OASL (11726364_x_at) / RFU SOX15 (11748057_x_at) / Fold change /veh SOX15 (11748057_x_at) / RFU CD79A (11719716_a_at) / Fold change /veh CD79A (11719716_a_at) / RFU HIST1H1D (11736915_at) / Fold change /veh HIST1H1D (11736915_at) / RFU CASKIN2 (11723855_a_at) / Fold change /veh CASKIN2 (11723855_a_at) / RFU LOC730098 (11760151_x_at) / Fold change /veh LOC730098 (11760151_x_at) / RFU OR4N2 (11742367_at) / Fold change /veh OR4N2 (11742367_at) / RFU PRRT2 (11749266_a_at) / Fold change /veh PRRT2 (11749266_a_at) / RFU SNX32 (11753110_a_at) / Fold change /veh SNX32 (11753110_a_at) / RFU CDHR5 (11726645_a_at) / Fold change /veh CDHR5 (11726645_a_at) / RFU RCAN1 (11760418_a_at) / Fold change /veh RCAN1 (11760418_a_at) / RFU FAM167A (11723789_a_at) / Fold change /veh FAM167A (11723789_a_at) / RFU FAM26E (11764081_at) / Fold change /veh FAM26E (11764081_at) / RFU ISYNA1 (11749810_s_at) / Fold change /veh ISYNA1 (11749810_s_at) / RFU ACY1 (11761880_at) / Fold change /veh ACY1 (11761880_at) / RFU 11764098_at / Fold change /veh 11764098_at / RFU SAMD14 (11745864_x_at) / Fold change /veh SAMD14 (11745864_x_at) / RFU NPB (11741838_a_at) / Fold change /veh NPB (11741838_a_at) / RFU TMPRSS6 (11731388_a_at) / Fold change /veh TMPRSS6 (11731388_a_at) / RFU KRTAP10-2 (11738614_at) / Fold change /veh KRTAP10-2 (11738614_at) / RFU ARHGAP8 /// PRR5-ARHGAP8 (11727945_x_at) / Fold change /veh ARHGAP8 /// PRR5-ARHGAP8 (11727945_x_at) / RFU KRTAP5-7 /// NADSYN1 (11734609_at) / Fold change /veh KRTAP5-7 /// NADSYN1 (11734609_at) / RFU RASL12 (11751679_a_at) / Fold change /veh RASL12 (11751679_a_at) / RFU CDKN2B (11736163_a_at) / Fold change /veh CDKN2B (11736163_a_at) / RFU PRF1 (11729649_at) / Fold change /veh PRF1 (11729649_at) / RFU, ZNF638 /// ZNF638-IT1 / Fold change vs veh, ZNF638 /// ZNF638-IT1 / RFU, PANK3 / Fold change vs veh, PANK3 / RFU, SH3YL1 / Fold change vs veh, SH3YL1 / RFU, ZEB2 / Fold change vs veh, ZEB2 / RFU, NRIP1 / Fold change vs veh, NRIP1 / RFU, PTTG1IP / Fold change vs veh, PTTG1IP / RFU, CAPN2 / Fold change vs veh, CAPN2 / RFU, MED14 / Fold change vs veh, MED14 / RFU, SNORA58 / Fold change vs veh, SNORA58 / RFU, C1orf63 / Fold change vs veh, C1orf63 / RFU, LRRFIP1 / Fold change vs veh, LRRFIP1 / RFU, NDUFAF7 / Fold change vs veh, NDUFAF7 / RFU, SLC12A2 / Fold change vs veh, SLC12A2 / RFU, IBTK / Fold change vs veh, IBTK / RFU, ESF1 / Fold change vs veh, ESF1 / Fold change vs veh, TMEM50B / RFU, TAOK1 / Fold change vs veh, TAOK1 / RFU, ACBD3 / Fold change vs veh, ACBD3 / RFU, TMA16 / Fold change vs veh, TMA16 / RFU, RWDD3 / Fold change vs veh, RWDD3 / RFU, BCAT1 / Fold change vs veh, BCAT1 / RFU, EDEM3 / Fold change vs veh, EDEM3 / RFU, TMEM33 / Fold change vs veh, TMEM33 / RFU, WDR75 / Fold change vs veh, WDR75 / RFU, AHCTF1 / Fold change vs veh, AHCTF1 / RFU, TFRC / Fold change vs veh, TFRC / RFU, ZDHHC17 / Fold change vs veh, ZDHHC17 / RFU, NOM1 / Fold change vs veh, NOM1 / RFU, ARL8B / Fold change vs veh, ARL8B / RFU, ZBTB11 / Fold change vs veh, ZBTB11 / RFU, TAMM41 / Fold change vs veh, TAMM41 / RFU, KIAA1704 /// LOC100996395 / Fold change vs veh, KIAA1704 /// LOC100996395 / RFU, ING1 / Fold change vs veh, ING1 / RFU, TRMT61B / Fold change vs veh, TRMT61B / RFU, FUBP3 / Fold change vs veh, FUBP3 / RFU, TP53 / Fold change vs veh, TP53 / RFU, TNKS2 / Fold change vs veh, TNKS2 / RFU, ZFP14 / Fold change vs veh, ZFP14 / RFU, ACTR2 / Fold change vs veh, ACTR2 / RFU, PPP3R1 / Fold change vs veh, PPP3R1 / RFU, PIK3R1 / Fold change vs veh, PIK3R1 / RFU, HNRNPA1 / Fold change vs veh, HNRNPA1 / RFU, RNF170 / Fold change vs veh, RNF170 / RFU, ZNF28 / Fold change vs veh, ZNF28 / RFU, RNGTT / Fold change vs veh, RNGTT / RFU, OGT / Fold change vs veh, OGT / RFU, BRD1 / Fold change vs veh, BRD1 / RFU, MARS / Fold change vs veh, MARS / RFU, ZNF655 / Fold change vs veh, ZNF655 / RFU, FAHD1 / Fold change vs veh, FAHD1 / RFU, BDP1 / Fold change vs veh, BDP1 / RFU, LRRCC1 / Fold change vs veh, LRRCC1 / RFU, ARID1A / Fold change vs veh, ARID1A / RFU, ZNF146 / Fold change vs veh, ZNF146 / RFU, ZNF330 / Fold change vs veh, ZNF330 / RFU, GPN3 / Fold change vs veh, GPN3 / RFU, C9orf123 / Fold change vs veh, C9orf123 / RFU, N4BP2L2 / Fold change vs veh, N4BP2L2 / RFU, ARFIP1 / Fold change vs veh, ARFIP1 / RFU, FAM179B / Fold change vs veh, FAM179B / RFU, BCL10 / Fold change vs veh, BCL10 / RFU, UHRF1BP1L / Fold change vs veh, UHRF1BP1L / RFU, BET1 / Fold change vs veh, BET1 / RFU, CNOT2 / Fold change vs veh, CNOT2 / RFU, ZNF268 / Fold change vs veh, ZNF268 / Fold change vs veh, ZNF507 / RFU, DGCR2 / Fold change vs veh, DGCR2 / RFU, WDSUB1 / Fold change vs veh, WDSUB1 / Fold change vs veh, HSP90B1 /// MIR3652 / RFU, ADSS / Fold change vs veh, ADSS / RFU, GK / Fold change vs veh, GK / RFU, ZNF148 / Fold change vs veh, ZNF148 / RFU, TAF9 / Fold change vs veh, TAF9 / RFU, SLC1A5 / Fold change vs veh, SLC1A5 / RFU, SLMO2 / Fold change vs veh, SLMO2 / RFU, ABCC4 / Fold change vs veh, ABCC4 / RFU, LOC101060439 /// RAP1B / Fold change vs veh, LOC101060439 /// RAP1B / RFU, RFX7 / Fold change vs veh, RFX7 / RFU, GTPBP10 / Fold change vs veh, GTPBP10 / RFU, CNEP1R1 / Fold change vs veh, CNEP1R1 / RFU, BIVM-ERCC5 /// ERCC5 / Fold change vs veh, BIVM-ERCC5 /// ERCC5 / RFU, ILF3 / Fold change vs veh, ILF3 / RFU 11762660_at / Fold change /veh 11762660_at / RFU VCAN (11757783_s_at) / Fold change /veh VCAN (11757783_s_at) / RFU DDX43 (11728927_at) / Fold change /veh DDX43 (11728927_at) / RFU KRT8 (11758188_x_at) / Fold change /veh KRT8 (11758188_x_at) / RFU NKD1 (11759106_at) / Fold change /veh NKD1 (11759106_at) / RFU SRD5A1 (11742802_a_at) / Fold change /veh SRD5A1 (11742802_a_at) / RFU TPSAB1 /// TPSB2 (11721975_s_at) / Fold change /veh TPSAB1 /// TPSB2 (11721975_s_at) / RFU GSTM3 (11746129_a_at) / Fold change /veh GSTM3 (11746129_a_at) / RFU IL23R (11737362_x_at) / Fold change /veh IL23R (11737362_x_at) / RFU TMEM51 (11727254_a_at) / Fold change /veh TMEM51 (11727254_a_at) / RFU PIWIL2 (11732686_x_at) / Fold change /veh PIWIL2 (11732686_x_at) / RFU ORM1 (11744905_x_at) / Fold change /veh ORM1 (11744905_x_at) / RFU CCDC152 (11743942_at) / Fold change /veh CCDC152 (11743942_at) / RFU ECM1 (11717891_a_at) / Fold change /veh ECM1 (11717891_a_at) / RFU IL23R (11748794_a_at) / Fold change /veh IL23R (11748794_a_at) / RFU TNFAIP8L3 (11732012_x_at) / Fold change /veh TNFAIP8L3 (11732012_x_at) / RFU MBOAT4 (11741988_at) / Fold change /veh MBOAT4 (11741988_at) / RFU 11764193_at / Fold change /veh 11764193_at / RFU TMEM53 (11763286_at) / Fold change /veh TMEM53 (11763286_at) / RFU MAGEB2 (11727129_at) / Fold change /veh MAGEB2 (11727129_at) / RFU TMEM200A (11744735_a_at) / Fold change /veh TMEM200A (11744735_a_at) / RFU CCDC152 (11751479_a_at) / Fold change /veh CCDC152 (11751479_a_at) / RFU FAM211A (11726209_a_at) / Fold change /veh FAM211A (11726209_a_at) / RFU RGS16 (11746705_a_at) / Fold change /veh RGS16 (11746705_a_at) / RFU VCAN (11755009_s_at) / Fold change /veh VCAN (11755009_s_at) / RFU RHOB (11743442_s_at) / Fold change /veh RHOB (11743442_s_at) / RFU RGS16 (11720943_a_at) / Fold change /veh RGS16 (11720943_a_at) / RFU RGS16 (11720944_at) / Fold change /veh RGS16 (11720944_at) / RFU, VPS4B / Fold change vs veh, VPS4B / RFU, CREB1 / Fold change vs veh, CREB1 / RFU, DNAJC13 / Fold change vs veh, DNAJC13 / RFU, GNAQ / Fold change vs veh, GNAQ / RFU, CDK5R1 / Fold change vs veh, CDK5R1 / RFU, ZRANB3 / Fold change vs veh, ZRANB3 / RFU, CUL4A / Fold change vs veh, CUL4A / RFU, CCNY / Fold change vs veh, CCNY / RFU, UFL1 / Fold change vs veh, UFL1 / RFU, COG3 / Fold change vs veh, COG3 / RFU, DIAPH2 / Fold change vs veh, DIAPH2 / RFU, SKA2 / Fold change vs veh, SKA2 / RFU, AFF3 / Fold change vs veh, AFF3 / RFU, LMF1 / Fold change vs veh, LMF1 / RFU, IPO11 / Fold change vs veh, IPO11 / RFU, DFFB / Fold change vs veh, DFFB / RFU, FOXP1 / Fold change vs veh, FOXP1 / RFU, CARD8 / Fold change vs veh, CARD8 / RFU, STRN3 / Fold change vs veh, STRN3 / RFU, ADK / Fold change vs veh, ADK / RFU, RASSF2 / Fold change vs veh, RASSF2 / RFU, WIPF1 / Fold change vs veh, WIPF1 / RFU, LARP1B / Fold change vs veh, LARP1B / RFU, RASA1 / Fold change vs veh, RASA1 / RFU, RB1 / Fold change vs veh, RB1 / RFU, PPFIA1 / Fold change vs veh, PPFIA1 / RFU, MAT2A / Fold change vs veh, MAT2A / RFU, CCT5 / Fold change vs veh, CCT5 / RFU, WDR92 / Fold change vs veh, WDR92 / RFU, CUX1 / Fold change vs veh, CUX1 / RFU, TTC7A / Fold change vs veh, TTC7A / RFU, TMEM135 / Fold change vs veh, TMEM135 / RFU, DEPTOR / Fold change vs veh, DEPTOR / RFU, CPM / Fold change vs veh, CPM / RFU, DNAJB6 / Fold change vs veh, DNAJB6 / RFU, CACNA2D3 / Fold change vs veh, CACNA2D3 / RFU, DTX4 / Fold change vs veh, DTX4 / RFU, TFCP2 / Fold change vs veh, TFCP2 / RFU, GMCL1 /// GMCL1P1 / Fold change vs veh, GMCL1 /// GMCL1P1 / RFU, AEBP2 / Fold change vs veh, AEBP2 / RFU, SNHG1 /// SNORD22 /// SNORD25 /// SNORD26 /// SNORD27 /// SNORD28 /// SNORD29 /// SNORD31 / Fold change vs veh, SNHG1 /// SNORD22 /// SNORD25 /// SNORD26 /// SNORD27 /// SNORD28 /// SNORD29 /// SNORD31 / Fold change (Aza/veh), C12orf56 (ProbeSet 11735607_a_at) / Fold change (ACY-1035/veh), C12orf56 (ProbeSet 11735607_a_at) / Fold change (Aza/veh), FGFR1OP (ProbeSet 11751329_s_at) / Fold change (ACY-1035/veh), FGFR1OP (ProbeSet 11751329_s_at) / Fold change (Aza/veh), VPS36 (ProbeSet 11739960_a_at) / Fold change (ACY-1035/veh), VPS36 (ProbeSet 11739960_a_at) / RFU SYPL1 (11715823_x_at) / Fold change /veh SYPL1 (11715823_x_at) / RFU IGFBP7 (11715501_s_at) / Fold change /veh IGFBP7 (11715501_s_at) / RFU REEP3 (11722064_at) / Fold change /veh REEP3 (11722064_at) / RFU IGLL1 (11728026_x_at) / Fold change /veh IGLL1 (11728026_x_at): dose or concentration left out as unconfirmed. Type of assay: cell-based, human.

`Nc1ncn([C@@H]2O[C@H](CO)[C@@H](O)[C@H]2O)c(=O)n1` [azacitidine]: the “Fold change /veh LRRC4B (11730491_at)” value stood at 1.07.
